# According to US10035780B2, “Quinazoline scaffold based compounds, pharmaceutical compositions and methods of use thereof” (TECHNION RESEARCH & DEVELOPMENT FOUNDATION LTD., priority 2014, dated 2018):
# “Also recorded” adds a separate entry of the source.
# What was measured:
# [1] = system: SH SY 6Y cells; experiment: Protection of SH SY 6Y neuronal cells against lethal effects of glutamate; assay type: cell-based, human
# Method: (§1) Cell cultures of various human glial type cell lines (T98G, U87MG, A172, U118MG), as well as human neuronal type cell lines SH-SY 5Y and Be(2)-C were used to test the new compounds. In addition, the rat glioma cell line C6 was used. PC12 cells originating from rats were used as another cell line displaying neuronal characteristics. The applicants also have produced, by genetic manipulation, a modified rat C6 glial cell strain and a modified human U118MG glial type cell strain, both under-expressing the TSPO, which allows to study TSPO specific effects, including of the compounds of the invention, which can be done according to methods described previously (Weisinger et al. Biochemistry. 2004; 43:12315-21; Levin et al. 2005; Zeno et al., 2009).
# The protective capabilities of the compounds of the invention and involvement of the TSPO were tested in cell culture, using cell lines of glial and neuronal type, cultured and testing according to standard methods (Kugler et al. 2008; Zeno et al. 2009; Dadon-Nachum et al. Stem Cell Rev. 2011; 7:664-71). […]
# [2] = system: U118MG cells; experiment: Protection against cell death induced by glutamate in U118MG cell culture; assay type: cell-based, human; conditions: for Protection against glutamate-induced cell death: cell culture, grade in words; for lethal effects of compound at high concentration: 100 μM compound alone; for protection against cell death induced by glutamate: U118MG cells, 35 mM glutamate, compound 1-100 μM
# Method: as §1
# The protective capabilities of the compounds of the invention and involvement of the TSPO were tested in cell culture, using cell lines of glial and neuronal type, cultured and testing according to standard methods (Kugler et al. 2008; Zeno et al. 2009; Dadon-Nachum et al. Stem Cell Rev. 2011; 7:664-71). Furthermore, primary cell cultures are also used (Banker, G. et al. Culturing Nerve Cells, 2nd Edition, The MIT Press (1998). Treatments included: (1) exposure to glutamate (35 mM), Abeta(1-42), NH4Cl, CoCl2, and nitric oxide (NO) donors, in order to mimic particular aspects of neurodegeneration; (2) treatment with the novel compounds and with traditional TSPO ligands as comparative treatment; and (3) TSPO knockdown by genetic manipulation.
# Techniques and parameters assayed are summarized here: Total protein levels (Bradford. Anal Biochem. 1976; 72:248-54); TSPO ligand binding assays (Kugler et al. 2008; Levin et al. 2005; Danovich et al. Eur Neuropsychopharmacol. 2008; 18:24-33) cell death, including apoptosis and necrosis and related molecular biological processes (Soustiel et al. Neuropathol Appl Neurobiol. 2008; 34:412-23; Soustiel et al. Exp Neurol. 2008; 214:201-8; Zeno et al. 2009); mitochondrial transmembrane potential collapse (Chelli et al. Biochem Pharmacol. 2004; 68:125-34; Kugler et al. 2008; Zeno et al., 2009; Shargorodsky et al. Apoptosis. 2012; 17:647-65), reactive oxygen species (ROS) generation as a measure of oxidative stress (Veenman et al. 2008; Zeno et al. 2009); TSPO knockdown (Levin et al. 2005; Zeno et al. 2009); expression levels of mitochondrial TSPO and associated proteins (Veenman et al. 2002; Levin et al. 2005; Veenman et al. 2008); gene expression with RT-PCR and microarray analysis (Bode et al. 2012; Veenman et al. 2012). Parameters of inflammation, immune response, migration, and the cell cycle are also tested. All these approaches can also be applied for quality control of the compounds.
# The compounds of the invention protect against cell death induced by glutamate in cell culture of U118MG cells of astrocytic origin (FIGS. 1, 2, 3 and 8) or SH SY 6Y cells of neuronal origin (FIG. 4). […] In the control group, 35 mM of glutamate killed ˜60% of the cells.
# The experimental setup is explained using FIG. 8B as an example: • 1. Control: Cell death levels are taken as 0% • 2. Glu: Cell death levels induced by glutamate are over 50% • 3. […] Glu+Cpd 5: When Cpd 5 is given as a treatment to counteract cell death induced by glutamate, increasing concentrations of Cpd 5 reduce cell death levels from over 50% to less than 5%.
# [3] = molecular target: TSPO (Homo sapiens (Human), UniProt P30536); assay type: binding; conditions: displacement of [3H]PK 11195 from TSPO
# Method: Briefly, the assay utilizes radioactive standard ligand [^3H] PK 11195 (1-(2-chlorophenyl)-N-methyl-N-(1-methyl-propyl)-3 isoquinolinecarboxamide), and measures the ability of the compounds of the invention to displace standard ligand in binding to TSPO. Total radioactive binding was determined by measuring the radioactivity of the radioactive ligand-receptor complex, obtained in the reaction of radioactive standard with the TSPO. Radioactive standard and the examined compound were added to the TSPO and after some incubation time the radioactivity of the resulting ligand-receptor complexes was measured with the help of a […]. This radioactivity indicates the binding of the radioactive standard to TSPO. […] This can be expressed as the half maximal inhibitory concentration (IC50), which is a measure of the effectiveness of a compound in inhibiting biological or biochemical function, in this case inhibiting binding of standard radioactive ligand binding to the TSPO. A derivative of the IC50 is the Ki, which is the calculated binding affinity of the novel compound to the TSPO.
# Binding to TSPO was evaluated using a [^3H]PK 11195 radio-assay, as described above.
# [4] = system: R6-2 mice; experiment: Incidence of tremor in R6-2 mice; assay type: in vivo, mouse
# Text: (§2) Apart from the behavioral experiments, mice were observed daily, and the day of death was noted. Behavioral experiments included distance covered in an open field apparatus, and tremor measurements.
# To assay incidence of tremor in R6-2 mice of the experiments for this invention, the StartleMonitor of Kinder Scientific (Poway, Calif.), with specific software to assay and present force pressure changes in newtons, was used.
# [5] = system: R6-2 mice; experiment: Lifespan of R6-2 mice, transgenic model for Huntington Disease; assay type: in vivo, mouse; conditions: for effect on lifespan: daily s.c. injections 5 days a week from week 5, vs DMSO and saline
# Text: For the assays described herein systemic injections of kainic in rats were applied and also contusion (Veenman et al. 2002; Soustiel et al. Neuropathol Appl Neurobiol. 2008; Soustiel et al. Exp Neurol. 2008). These models present very well defined cell death in the brain. Cell death in the brain is the major pathological characteristic of progressing neurodegeneration common to brain diseases. As the compounds of the present invention are designed to prevent cell death in the brain as a consequence of disease and progressing brain damage after injury, including behavioral impairments, animal models displaying cell death in the brain are the models of choice for displaying the protective capabilities of the compounds of the invention. For these reasons the R6-2 model for Huntington Disease was chosen to test the effectiveness of Compound 1 and to compare the effectiveness of Compound 1 with those of the compound of U.S. Pat. No. 8,541,428 (Cpd A) and with the classical TSPO ligand PK 11195, as well as other compounds disclosed herein. Compounds 5 and 6 were also tested in the same R6-2 model.
# R6-2 is a transgenic mouse model for Huntington Disease. Huntington Disease in humans is a hereditary neurodegenerative disease affecting motor performance and finally leading to death of the patients having the disease. R6-2 mice (˜120 CAG repeats B6CBA-Tg(HDexon1)62 Gpb/3J) mice were used for the experiments described below. For this purpose, mice obtained from the Jackson Laboratory (ME) were bred. In particular: males genotype: Hemizygous for Tg(HDexon1)62 Gpb, and females from the wildtype background strain B6CBAF1/J were bred according to the protocol of Jackson Laboratory. The male heterozygote offspring (R6-2 mice) were used for determining life span and motor activity, with and without drug treatment. Drug treatment consisted of daily (5 continuous days a week) subcutaneous injections of mice with 20 μl of: saline (sham control), vehicle DMSO (vehicle control), classic TSPO ligand PK 11195 (15 mg/kg), prior art Compound A (15 mg/kg), Compound 1 (15 mg/kg), and compound 1 (7.5 mg/kg). Drug treatment started on week 5 after birth. Quantities were used according to previous studies regarding TSPO ligands.
# as §2
# R6-2 mice were used as previously described in Example 5. In one experiment, treatment consisted of daily (5 continuous days per week) subcutaneous injections of mice with 20 μl of vehicle DMSO (control, n=10) and Compound 6 (7.5 mg/kg, n=12). In a separate experiment, compound 5 (7.5 mg/kg, n=5) was tested, compared to DMSO control (n=5).
# TSPO, sequence (P30536 whole entry): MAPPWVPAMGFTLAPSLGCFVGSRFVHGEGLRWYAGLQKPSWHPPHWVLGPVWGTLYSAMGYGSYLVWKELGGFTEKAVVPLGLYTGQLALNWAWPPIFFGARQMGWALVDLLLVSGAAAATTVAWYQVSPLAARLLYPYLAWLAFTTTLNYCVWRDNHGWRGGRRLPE
smiles,measurement,setting,value
"CCN(CC)C(=O)Oc1nc(-c2ccc(Br)cc2)nc2ccccc12 [Compound 4, 2-(4-bromophenyl)quinazolin-4-yl diethylcarbamate]",protection against lethal effects of glutamate,[1],protects neuronal cells
same,Protection against glutamate-induced cell death,[2],Good
same,Ki,[3],~45 nM
"CCN(C)C(=O)Oc1nc(-c2ccccc2Cl)nc2ccccc12 [Compound 6, 2-(2-chlorophenyl)quinazolin-4-yl ethyl(methyl)carbamate]",incidence of tremor activity,[4],tremor reducing effects; also recorded: reduced the incidence of tremor activity
same,lethal effects of compound at high concentration,[2]; halogenated vs unhalogenated analog,reduces lethal effects
same,lethal effects of compound at high concentration,"[2]; halogenated vs unhalogenated analog, listed as Cpd 6",reduces cell death effects
same,protection against cell death induced by glutamate,[2],protect better and more consistently; also recorded: improves protection
same,protection against cell death induced by glutamate,[2]; listed as compound 6,superior over compound 1
same,Protection against glutamate-induced cell death,[2],Excellent
same,cell death effect of glutamate at high compound concentration,"[2]; glutamate plus 100 μM compound, halogenated vs unhalogenated analog",reduces cell death effect of glutamate in cultures even further
same,cells killed by glutamate,"[2]; glutamate plus 100 μM compound, glutamate alone kills 50-60%",5%
same,Ki,[3],~60 nM
same,week until which 50% of the mice were still alive,"[5]; 7.5 mg/kg s.c., 50% of DMSO mice died before 10th week",12 week
same,effect on lifespan,[5],increase the average lifespan; also recorded: extends the life span
same,effect on lifespan,[5]; listed as compound 6,robust lifespan enhancing
